Data as given in patent US4772587A, “Dipeptide derivative of fatty acid” (Suntory Limited, priority 1985, dated 1988).
Non-standard residues stand in square brackets, D forms with d. Residues, ends and D or L forms follow the SMILES beside them. *: point of attachment. Oleoyl = CCCCCCCC/C=C\CCCCCCCC(=O)*; Stearoyl = CCCCCCCCCCCCCCCCCC(=O)*; Palmitoyl = CCCCCCCCCCCCCCCC(=O)*; Nle = CCCC[CH](N)C(=O)O; Cbz = O=C(OCc1ccccc1)*

What was measured:
prolyl endopeptidase = prolyl endopeptidase (Elizabethkingia meningoseptica, UniProt P27028); experiment: Measurement of anti-prolyl endopeptidase activity (decomposition of Z-glycyl-proline-β-naphthylamide); type: biochemical; settings: substrate Z-glycyl-proline-β-naphthylamide, phosphate buffer pH 7.0
Sequence of prolyl endopeptidase (P27028 21-705): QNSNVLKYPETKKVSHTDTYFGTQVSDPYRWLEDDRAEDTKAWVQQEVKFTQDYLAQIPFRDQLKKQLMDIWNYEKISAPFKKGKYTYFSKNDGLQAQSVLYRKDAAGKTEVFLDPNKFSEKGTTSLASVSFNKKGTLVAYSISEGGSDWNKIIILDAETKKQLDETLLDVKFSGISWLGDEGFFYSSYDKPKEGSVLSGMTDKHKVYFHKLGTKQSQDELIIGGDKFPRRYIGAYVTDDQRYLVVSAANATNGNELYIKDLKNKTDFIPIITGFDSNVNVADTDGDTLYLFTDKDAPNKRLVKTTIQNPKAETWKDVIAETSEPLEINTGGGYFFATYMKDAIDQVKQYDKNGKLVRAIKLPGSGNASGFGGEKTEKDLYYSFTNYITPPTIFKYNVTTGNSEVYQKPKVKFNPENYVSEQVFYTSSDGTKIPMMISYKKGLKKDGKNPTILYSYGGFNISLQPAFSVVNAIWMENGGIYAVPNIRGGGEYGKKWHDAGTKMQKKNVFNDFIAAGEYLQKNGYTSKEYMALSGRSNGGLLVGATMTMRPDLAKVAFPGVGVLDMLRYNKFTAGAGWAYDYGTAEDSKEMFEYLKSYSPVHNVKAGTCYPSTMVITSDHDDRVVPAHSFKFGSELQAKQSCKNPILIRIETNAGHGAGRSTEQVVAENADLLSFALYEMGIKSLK
Method: The method of Yoshimoto and Tsuru (T. Yoshimoto and D. Tsuru, Agr. Biol. Chem. 42, 2417, 1978) was used to measure the anti-prolyl endopeptidase activities of several compounds of the present invention. A mixture of 0.0025M Z-glycyl-proline-β-naphthylamide (0.25 ml), 0.1M phosphate buffer (pH, 7.0; 0.99 ml) and a solution of a particular anti-prolyl endopeptidase compound (0.01 ml) was incubated in a test tube at 37° C. for 3 minutes. Thereafter, 0.1 ml of a solution of prolyl endopeptidase (0.2 U/ml) was added and the mixture was heated at 35° C. for 10 minutes. After the reaction, 2.0 ml of Triton X-100 in 1M acetate buffer (pH, 4.0) was added to the reaction mixture until the final concentration of the surfactant was 10%. The mixture was left at room temperature for 15 minutes and the absorbance (a) at 410 nm was measured.
A sample for blind test was prepared by using the buffer instead of the anti-prolyl endopeptidase compound and its absorbance (b) was also measured. The percent inhibition of prolyl endopeptidase was calculated by the formula: ((b-a)/b)×100, and the amount of a specific compound to achieve 50% inhibition (IC50) was determined.

[1] = test system: experimental amnesia caused in rats by scopolamine; experiment: Preventive effect against experimental amnesia caused in rats by scopolamine (passive avoidance learning); type: in vivo, Wister male rats; settings: for Avoidance time 24 hrs. later / Avoidance time 48 hrs. later / No. of amnesic rats/No. of rats tested / Percentage amnesia: scopolamine 3 mg/kg i.p. after learning
Method: Several of the anti-prolyl endopeptidase compounds of the present invention were checked for their ability to prevent the inhibition of long-term memory fixation by scopolamine. Solutions of physiological saline (0.3 ml) that contained selected compounds of the present inventions in varying amounts ([…], 0.25 mg, 0.1 mg, 0.025 mg and 0.010 mg/kg) were administered intraperitoneally once a day to Wister male rats (100-120 g). One hour after the administration, electric shocks (1.7 mA) were applied to the rats so that they would acquire passive avoidance learning. Immediately thereafter, scopolamine was administered intraperitoneally to each rat in an amount of 3 mg per kg of body weight.
The result of the test was assessed both 24 hours and 48 hours after the administration of scopolamine. The number of amnesic rats and of sound rats was counted for each of the control group (rats to which the test compounds had not been administered but to which only scopolamine and physiological saline had been administered intraperitoneally and the treated group (rats to which both the test compound and scopolamine had been administered). The results are shown in Table 3.

[2] = test system: experimental amnesia caused in rats by scopolamine; experiment: as above; type: in vivo, Wister male rats; settings: for Avoidance time 48 hrs. later: sample 1 mg/kg i.p., scopolamine 3 mg/kg i.p. after learning
[3] = administered orally (so in the source) in an amount of 0.025 mg/kg
[4] = administered orally (so in the source) in an amount of 0.1 mg/kg
[5] = administered orally (so in the source) in an amount of 1 mg/kg
[6] = dose of 0.01 mg/kg (orally as printed)

Row | Molecule | IC50 (amount of compound to achieve 50% inhibition) (prolyl endopeptidase) [ng/test tube] | Avoidance time 24 hrs. later ([1]; sample 25 μg/kg i.p.) [s] | Avoidance time 48 hrs. later ([1]; sample 25 μg/kg i.p.) [s] | No. of amnesic rats/No. of rats tested ([1]; sample 25 μg/kg i.p.) | Percentage amnesia ([1]; sample 25 μg/kg i.p.) [%] | Avoidance time 24 hrs. later ([1]; sample 100 μg/kg i.p.) [s] | Avoidance time 48 hrs. later ([1]; sample 100 μg/kg i.p.) [s] | No. of amnesic rats/No. of rats tested ([1]; sample 100 μg/kg i.p.) | Percentage amnesia ([1]; sample 100 μg/kg i.p.) [%] | anti-amnesic action (in words) [2, 3] | anti-amnesic action (in words) [2, 4] | further results
1 | CCCCCCCC/C=C\CCCCCCCC(=O)NC(CC(C)C)C(=O)NC(CC(C)C)C(=O)N1CCCC1C=O (stereo not drawn) [SUAM 1158, oleoyl-Leu-Leu-Pro-CHO] (Oleoyl-Leu-Leu-Pro-aldehyde; configuration not given here) | 80.0 | 300 | 300 | 0/10 | 0 | 300 | 300 | 0/10 | 0 | excellent effect | strong anti-amnesic action | 
2 | CCCCCCCC/C=C\CCCCCCCC(=O)NC(C(=O)N1CCCC1C=O)C(C)C (stereo not drawn) [SUAM 1156, oleoyl-Val-Pro-CHO] (Oleoyl-Val-Pro-aldehyde; configuration not given here) | 0.7 |  |  |  |  | 300 | 276.4 | 1/10 | 10 |  | considerably excellent anti-amnesic action | anti-amnesic action (in words) [1, 5]: no remarkable effect; Avoidance time 24 hrs. later ([1]; sample 250 μg/kg i.p.): 240.6 s; Avoidance time 48 hrs. later ([1]; sample 250 μg/kg i.p.): 226.0 s; No. of amnesic rats/No. of rats tested ([1]; sample 250 μg/kg i.p.): 2/10; Percentage amnesia ([1]; sample 250 μg/kg i.p.): 20%; Avoidance time 24 hrs. later ([1]; sample 1 mg/kg i.p.): 184.0 s; No. of amnesic rats/No. of rats tested ([1]; sample 1 mg/kg i.p.): 5/10; Percentage amnesia ([1]; sample 1 mg/kg i.p.): 50%; Avoidance time 48 hrs. later [2]: 119.8 s
3 | CCCCCCCC/C=C\CCCCCCCC(=O)NC(CCC=O)C(=O)N1CCCC1C=O (stereo not shown) [SUAM 1217, oleoyl-Glu(CHO)-Pro-CHO] | 0.3 |  |  |  |  |  |  |  |  |  |  | 
4 | CCCCCCCC/C=C\CCCCCCCC(=O)N1CCCC1C(=O)N1CCCC1C=O (stereo not drawn) [SUAM 1215, Oleoyl-Pro-Pro-CHO] (Oleoyl-Pro-Pro-aldehyde; configuration not given here) | 0.3 | 300 | 300 | 0/10 | 0 |  |  |  |  | strong anti-amnesic action |  | anti-amnesic action (in words) [1, 6]: strong anti-amnesic action; Avoidance time 24 hrs. later ([1]; sample 10 μg/kg i.p.): 300 s; Avoidance time 48 hrs. later ([1]; sample 10 μg/kg i.p.): 300 s; No. of amnesic rats/No. of rats tested ([1]; sample 10 μg/kg i.p.): 0/10; Percentage amnesia ([1]; sample 10 μg/kg i.p.): 0%
5 | CCCCCCCCCCCCCCCC(=O)NC(CC(C)C)C(=O)N1CCCC1C=O (stereo not drawn) [SUAM 1155, palmitoyl-Leu-Pro-CHO] (Palmitoyl-Leu-Pro-aldehyde; configuration not given here) | 0.7 |  |  |  |  | 300 | 300 | 0/10 | 0 |  | strong anti-amnesic action | 
6 | CCCCCCCC/C=C\CCCCCCCC(=O)NC(CCSC)C(=O)N1CCCC1C=O (stereo not drawn) [SUAM 1214, oleoyl-Met-Pro-CHO] (Oleoyl-Met-Pro-aldehyde; configuration not given here) | 0.6 | 300 | 300 | 0/10 | 0 | 300 | 276.4 | 1/10 | 10 | considerably excellent anti-amnesic action |  | anti-amnesic action (in words) [1, 5]: no remarkable effect; anti-amnesic action (in words) [1, 6]: remarkable anti-amnesic action; Avoidance time 24 hrs. later ([1]; sample 10 μg/kg i.p.): 300 s; Avoidance time 48 hrs. later ([1]; sample 10 μg/kg i.p.): 300 s; No. of amnesic rats/No. of rats tested ([1]; sample 10 μg/kg i.p.): 0/10; Percentage amnesia ([1]; sample 10 μg/kg i.p.): 0%; Avoidance time 24 hrs. later ([1]; sample 250 μg/kg i.p.): 240.6 s; Avoidance time 48 hrs. later ([1]; sample 250 μg/kg i.p.): 226.0 s; No. of amnesic rats/No. of rats tested ([1]; sample 250 μg/kg i.p.): 2/10; Percentage amnesia ([1]; sample 250 μg/kg i.p.): 20%; Avoidance time 24 hrs. later ([1]; sample 1 mg/kg i.p.): 73.0 s; No. of amnesic rats/No. of rats tested ([1]; sample 1 mg/kg i.p.): 6/10; Percentage amnesia ([1]; sample 1 mg/kg i.p.): 60%; Avoidance time 48 hrs. later [2]: 103.0 s
7 | CCCCCCCC/C=C\CCCCCCCC(=O)NC(CCCC)C(=O)N1CCCC1C=O (stereo not drawn) [SUAM 1166, oleoyl-norLeu-Pro-CHO] (Oleoyl-[Nle]-Pro-aldehyde; configuration not given here) | 0.8 | 300 | 300 | 0/10 | 0 |  |  |  |  | strong anti-amnesic action |  | 
8 | CCCCCCCC/C=C\CCCCCCCC(=O)NC(CCCCNC(=O)OCc1ccccc1)C(=O)N1CCCC1C=O (stereo not shown) [SUAM 1216, oleoyl-Lys(Z)-Pro-CHO] (Oleoyl-Lys(Cbz)-Pro-aldehyde; configuration not given here) | 0.6 |  |  |  |  |  |  |  |  |  |  | 
9 | linoleoyl-Leu-Pro-CHO [SUAM 1157] | 0.6 |  |  |  |  |  |  |  |  |  |  | 
10 | CCCCCCCC/C=C\CCCCCCCC(=O)NC(CC(C)C)C(=O)N1CCCC1C=O (stereo not drawn) [SUAM 1140, Oleoyl-Leu-Pro-CHO] (Oleoyl-Leu-Pro-aldehyde; configuration not given here) | 0.8 | 300 | 300 | 0/5 | 0 | 300 | 300 | 0/5 | 0 |  | considerably excellent anti-amnesic action | anti-amnesic action (in words) [1, 5]: no remarkable effect; Avoidance time 24 hrs. later ([1]; sample 10 μg/kg i.p.): 185.0 s; Avoidance time 48 hrs. later ([1]; sample 10 μg/kg i.p.): 189.0 s; No. of amnesic rats/No. of rats tested ([1]; sample 10 μg/kg i.p.): 2/5; Percentage amnesia ([1]; sample 10 μg/kg i.p.): 40%; Avoidance time 24 hrs. later ([1]; sample 250 μg/kg i.p.): 263 s; Avoidance time 48 hrs. later ([1]; sample 250 μg/kg i.p.): 284 s; No. of amnesic rats/No. of rats tested ([1]; sample 250 μg/kg i.p.): 1/5; Percentage amnesia ([1]; sample 250 μg/kg i.p.): 20%; Avoidance time 24 hrs. later ([1]; sample 1 mg/kg i.p.): 73.0 s; No. of amnesic rats/No. of rats tested ([1]; sample 1 mg/kg i.p.): 3/5; Percentage amnesia ([1]; sample 1 mg/kg i.p.): 60%; Avoidance time 48 hrs. later [2]: 103.0 s
11 | CCCCCCCC/C=C\CCCCCCCC(=O)NC(C)C(=O)N1CCCC1C=O (stereo not shown) [SUAM 1092, oleoyl-Ala-pro-CHO] | 12.0 |  |  |  |  |  |  |  |  |  |  | 
12 | CCCCCCCCCCCCCCCCCC(=O)NC(CC(C)C)C(=O)N1CCCC1C=O (stereo not drawn) [SUAM 1154, stearoyl-Leu-Pro-CHO] (Stearoyl-Leu-Pro-aldehyde; configuration not given here) | 1.0 |  |  |  |  | 300 | 300 | 0/10 | 0 |  | strong anti-amnesic action | 
